Assay results: patent US12528774B2, “Thiosemicarbazone compounds and uses thereof” (The Regents of the University of California, priority 2019, dated 2026)
Where two headings read alike, the source gives them in different places.

Test system: MIAPACA2 cells
Assay: Proliferation assay (CellTiter-Glo, 72 h) in MIAPACA2 cells
Assay type: cell-based, human
Settings: for IC90: MIAPACA2, 72 h; for potency relative to non-fluorinated analog: IC90 without copper, analog of same 4′ amine series (HCT1, HCT6 or HCT11); for increase in potency under copper supplementation versus non-copper-supplemented IC90: 20 μM CuCl2
Method: IC90 values against MIAPACA2 cells was first determined in normal cell culture conditions (DMEM media and 10% FBS). Compounds were separated into three series (4′ primary amines, 4′ secondary amines, 4′ tertiary amines) to reflect the relative degrees of 4′ amine methylation. […] (Refs 41, 42).
HCT compounds are known to be copper chelators. (Ref. 32). To test whether the compounds described herein were similarly potentiated, the IC90 (+Cu IC90) values were determined against MIAPACA2 cells in media supplemented with physiologically relevant levels of copper (DMEM media+10% FBS+20 μM CuCl2). MIAPACA2 cells were treated with the indicated HCT±20 μM Cu(II) for 72 hours, then cell viability was measured with CellTiter-Glo to determine IC90 values.
(§1) Proliferation assay: Cells were plated in 384-well plates (500 cells/well for adherent cell lines in 30 μl volume). Drugs were serially diluted to the desired concentrations and an equivalent volume of DMSO was added to vehicle control. Following 72 h incubation, ATP content was measured using CellTiter-Glo reagent according to manufacturer's instructions (Promega, CellTiter-Glo Luminescent Cell Viability Assay), and analyzed by SpectraMax luminometer (Molecular Devices). IC50 and IC90 values, concentrations required to inhibit proliferation by 50% and 90% respectively compared to DMSO treated cells, were calculated using Prism 6.0 h (Graphpad Software).
as §1, with “assay.” for “assay:”, “Software). The 430-member protein kinase inhibitor library used for the chemical genomics screen was purchased from Selleckchem, Catalog No. L1200.” for “Software).”

[1] = Homo sapiens, MIA PaCa-2, 72 h, DMEM + 10% FBS, no copper supplementation, read-out: IC90
[2] = DMEM + 10% FBS + 20 μM CuCl2, read-out: +Cu(II) IC90

Row | Structure (SMILES) | IC90 [1] [nM] | potency relative to non-fluorinated analog | IC90 [2] [nM] | increase in potency under copper supplementation versus non-copper-supplemented IC90 | increase in potency under copper supplementation versus non-copper-supplemented IC90 (listed as 11) | increase in potency under copper supplementation versus non-copper-supplemented IC90 (listed as 6) | effect on proliferation (20 μM Cu(II) alone)
1 | NC(=S)N/N=C/c1ncc(F)c2ccccc12 [HCT2, (E)-2-((4-Fluoroisoquinolin-1-yl)methylene)hydrazine-1-carbothioamide] | 24600 | did not show an increase in potency | 2060 | – | – | – | –
2 | CN(C)C(=S)N/N=C/c1nccc2ccccc12 (mixture of isomers) [HCT11, (E)-2-(Isoquinolin-1-ylmethylene)-N,N-dimethylhydrazine-1-carbothioamide and (Z)-2-(Isoquinolin-1-ylmethylene)-N,N-dimethylhydrazine-1-carbothioamide] | 29600 | – | 73.7 | 400 fold | significantly increased | – | –
3 | CNc1c(F)ccc2c(/C=N/NC(=S)N(C)C)nccc12 (mixture of isomers) [HCT14, (E)-2-((6-Fluoro-5-(methylamino)isoquinolin-1-yl)methylene)-N,N-dimethylhydrazine-1-carbothioamide and (Z)-2-((6-Fluoro-5-(methylamino)isoquinolin-1-yl)methylene)-N,N-dimethylhydrazine-1-carbothioamide] | 272 | – | 38.4 | – | – | – | –
4 | CNC(=S)N/N=C/c1nccc2c(N)cccc12 (mixture of isomers) [HCT10, 2-((5-Aminoisoquinolin-1-yl)methylene)-N-methylhydrazine-1-carbothioamide and (Z)-2-((5-Aminoisoquinolin-1-yl)methylene)-N-methylhydrazine-1-carbothioamide] | 11200 | – | 7870 | – | – | – | –
5 | NC(=S)N/N=C/c1nccc2c(N)cccc12 [HCT5, (E)-2-((5-Aminoisoquinolin-1-yl)methylene)hydrazine-1-carbothioamide, reference compound] | 40500 | – | 71100 | attenuated | – | – | –
6 | CNc1cccc2c(/C=N/NC(=S)N(C)C)ncc(F)c12 (mixture of isomers) [HCT15, (E)-2-((4-Fluoro-5-(methylamino)isoquinolin-1-yl)methylene)-N,N-dimethylhydrazine-1-carbothioamide and (Z)-2-((4-Fluoro-5-(methylamino)isoquinolin-1-yl)methylene)-N,N-dimethylhydrazine-1-carbothioamide] | 327 | – | 42.3 | – | – | – | –
7 | CN(C)C(=S)N/N=C/c1ncc(F)c2ccccc12 (mixture of isomers) [HCT12, (E)-2-((4-Fluoroisoquinolin-1-yl)methylene)-N,N-dimethylhydrazine-1-carbothioamide and (Z)-2-((4-Fluoroisoquinolin-1-yl)methylene)-N,N-dimethylhydrazine-1-carbothioamide] | 274 | roughly 110 fold | 26.6 | – | – | – | –
8 | CNC(=S)N/N=C/c1nccc2ccccc12 [HCT6, (E)-2-(isoquinolin-1-ylmethylene)-N-methylhydrazine-1-carbothioamide, reference compound] | 18700 | – | 331 | 60 fold | – | significantly increased | –
9 | NC(=S)N/N=C/c1nccc2ccccc12 [HCT1, (E)-2-(isoquinolin-1-ylmethylene)hydrazine-1-carbothioamide, reference compound] | 18100 | – | 2210 | 10 fold | – | – | –
10 | CNC(=S)N/N=C/c1nccc2cc(F)ccc12 [HCT8, (E)-2-((6-Fluoroisoquinolin-1-yl)methylene)-N-methylhydrazine-1-carbothioamide] | 4080 | significantly more potent | 233 | – | – | – | –
11 | CNC(=S)N/N=C/c1ncc(F)c2ccccc12 [HCT7, (E)-2-((4-Fluoroisoquinolin-1-yl)methylene)-N-methylhydrazine-1-carbothioamide] | 2080 | significantly more potent | 114 | – | – | – | –
12 | NC(=S)N/N=C/c1nccc2cc(F)ccc12 [HCT3, (E)-2-((6-Fluoroisoquinolin-1-yl)methylene)hydrazine-1-carbothioamide] | 5440 | 3 fold | 2040 | – | – | – | –
13 | CNC(=S)N/N=C/c1nccc2c(NC)cccc12 [HCT9, E)-N-Methyl-2-((5-(methylamino)isoquinolin-1-yl)methylene)hydrazine-1-carbothioamide and (Z)—N-Methyl-2-((5-(methylamino)isoquinolin-1-yl)methylene)hydrazine-1-carbothioamide] | 4240 | – | 607 | significantly increased | – | – | –
14 | CNc1cccc2c(/C=N/NC(N)=S)nccc12 [HCT4, (E)-2-((5-(Methylamino)isoquinolin-1-yl)methylene)hydrazine-1-carbothioamide, reference compound] | 11500 | – | 5330 | – | – | – | –
15 | [Cl][Cu][Cl] [Cu(II), CuCl2] | – | – | – | – | – | – | did not affect proliferation at all
